Measured values published in patent US20110190336A1, “AZABENZIMIDAZOLONES” (CARA THERAPEUTICS, INC., priority 2008, published 2011).

Each molecule was assayed against T1, human DP2 receptor (Homo sapiens, UniProt Q9Y5Y4) (assay: Prostaglandin D2 binding inhibition assay (scintillation proximity assay, 3H PGD2, membranes of transfected CHO cells)). Conditions: SPA, 5.5 nM 3H PGD2, CHO-K1 FLP-In human DP2 membranes; upper limit determinable 30 μM; read-out: IC50 ranges for inhibition of PGD2 binding to human DP2.
T1 construct: expressed in transfected cells; host or cells: CHO-K1 FLP-In (Invitrogen, catalog no. R758-07), stably transfected
T1 sequence (Q9Y5Y4 1-395): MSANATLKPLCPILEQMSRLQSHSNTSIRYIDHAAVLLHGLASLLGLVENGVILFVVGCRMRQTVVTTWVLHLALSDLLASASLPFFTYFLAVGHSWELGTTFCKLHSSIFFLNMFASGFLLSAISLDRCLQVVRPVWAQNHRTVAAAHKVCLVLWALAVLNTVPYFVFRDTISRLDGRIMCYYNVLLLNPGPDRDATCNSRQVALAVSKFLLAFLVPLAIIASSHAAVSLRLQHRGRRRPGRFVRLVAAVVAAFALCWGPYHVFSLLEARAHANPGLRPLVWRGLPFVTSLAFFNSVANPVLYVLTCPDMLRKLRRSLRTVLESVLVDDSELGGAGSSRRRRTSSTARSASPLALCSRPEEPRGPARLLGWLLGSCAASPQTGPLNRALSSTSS
Description: The ability of compounds to inhibit binding of prostaglandin D2 (PGD2) to the human DP2 receptor was measured using a scintillation proximity assay (SPA). Chinese Hamster Ovary FLP-In cell lines (CHO-K1 FLP-In, Invitrogen, catalog no. R758-07) were stably transfected with the human DP2 gene (Genebank: AY507142). Cell lines were grown in suspension in EX-CELL 302 CHO Serum-free medium (Sigma, catalog no. 14324C) supplemented with 1% Fetal Bovine Serum (Invitrogen no. 10099-141), 2 mM L-glutamine (Invitrogen, catalog no. 25030-081) and 0.5 mg/ml Hygromycin B (Invitrogen, catalog no. 10687-010). Cells were collected by centrifugation in a Beckman Coulter Allegra X-12R centrifuge at 150×g for 5 minutes at room temperature.
Membranes from transfected cells were isolated for binding assays. Cell pellets containing approximately 2×10^9 cells were resuspended in 35 ml of cold membrane homogenization buffer (10 mM Tris (Sigma, catalog no. T2663), 1 mM EDTA (Fluka BioChemika no. 03690), and 70 μl of protease inhibitor cocktail (Sigma, catalog no. P8340)). Cells were homogenized with 30 strokes of a dounce homogenizer (Kontes, catalog no. 885303-0040), and the solution centrifuged at 200×g for 10 minutes. The supernatant was transferred to a 50 ml Oakridge tube (Beckman, catalog no. 357000) and centrifuged in a Beckman Coulter Avanti J-26×PI centrifuge with a JA30.50 rotor at 81,000×g for 1 hour at 15° C. The pellet was resuspended in membrane storage buffer (50 mM Tris (Sigma, catalog no. T2663), 2.5 mM EDTA (Fluka BioChemika no. 03690), 5 mM magnesium chloride (Sigma, catalog no. M1028), 100 mg/ml sucrose (Sigma, catalog no. 50389) and a 1:500 dilution of protease inhibitor cocktail (Sigma, catalog no. P8340)) and the total protein was quantitated using a BCA protein measurement kit (Pierce, catalog no. 23225). Aliquots were frozen at −80° C. until used. Compounds were tested for their ability to inhibit PGD2 binding to the purified membranes. 5 μg of the purified membranes, 0.25 mg of wheat germ agglutinin PVT SPA beads (GE Healthcare, catalog no. RPNQ0060) and 5.5 nM of ^3H PGD2 (PerkinElmer, catalog no. NET-616) were mixed in assay buffer ((50 mM Tris (Sigma, catalog no. T2663), 10 mM magnesium chloride (Sigma, catalog no. M1028), 100 mM sodium chloride (Sigma, catalog no. S6546) and 0.1% bovine serum albumin (Sigma, catalog no. A2153)). Using a Multidrop bulk dispenser, 75 μl of the assay mixture was dispensed in Optiplates (PerkinElmer, catalog no. 6007299) containing the compounds to be tested. After a 60 minute incubation period at room temperature, the plates were read on a PerkinElmer Topcount NXT HTS, and individual wells were quantitated as counts per minute (CPM). Data were expressed as a percent of the difference between the maximum and minimum responses. IC50 values (the concentration of compound producing 50% of the maximal response) were determined using a two-parameter non-linear regression algorithm analyzed using CambridgeSoft Bioassay software. Table 2 gives the range of IC50 values for claimed compounds in the binding assay.

SMILES | IC50 [µM]
Cc1noc(C)c1S(=O)(=O)N1CCC(n2c(=O)n(CC(=O)O)c3cccnc32)CC1 [Compound 54, 2-(3-(1-(3,5-dimethylisoxazol-4-ylsulfonyl)piperidin-4-yl)-2-oxo-2,3-dihydro-1H-imidazo[4,5-b]pyridin-1-yl)acetic acid] | > 30
Cc1ccc(CS(=O)(=O)N2CCC(n3c(=O)n(CC(=O)O)c4cccnc43)CC2)cc1 [Compound 56, 2-(3-(1-(4-methylbenzylsulfonyl)piperidin-4-yl)-2-oxo-2,3-dihydro-1H-imidazo[4,5-b]pyridin-1-yl)acetic acid] | 10 to 30
O=C(O)Cn1c(=O)n(C2CCN(S(=O)(=O)c3ccsc3)CC2)c2ncccc21 [Compound 60, 2-(2-oxo-3-(1-(thiophen-3-ylsulfonyl)piperidin-4-yl)-2,3-dihydro-1H-imidazo[4,5-b]pyridin-1-yl)acetic acid] | 1 to 10
N#Cc1ccc(S(=O)(=O)N2CCC(n3c(=O)n(CC(=O)O)c4cccnc43)CC2)cc1 [Compound 61, 2-(3-(1-(4-cyanophenylsulfonyl)piperidin-4-yl)-2-oxo-2,3-dihydro-1H-imidazo[4,5-b]pyridin-1-yl)acetic acid] | 1 to 10
Cc1cccc(CS(=O)(=O)N2CCC(n3c(=O)n(CC(=O)O)c4cccnc43)CC2)c1 [Compound 62, 2-(3-(1-(3-methylbenzylsulfonyl)piperidin-4-yl)-2-oxo-2,3-dihydro-1H-imidazo[4,5-b]pyridin-1-yl)acetic acid] | 1 to 10
CC(C)(C)c1ccc(S(=O)(=O)N2CCC(n3c(=O)n(CC(=O)O)c4cccnc43)CC2)cc1 [Compound 65, 2-(3-(1-(4-tert-butylphenylsulfonyl)piperidin-4-yl)-2-oxo-2,3-dihydro-1H-imidazo[4,5-b]pyridin-1-yl)acetic acid] | 1 to 10
CS(=O)(=O)c1cccc(S(=O)(=O)N2CCC(n3c(=O)n(CC(=O)O)c4cccnc43)CC2)c1 [Compound 66, 2-(3-(1-(3-(methylsulfonyl)phenyl-sulfonyl)piperidin-4-yl)-2-oxo-2,3-dihydro-1H-imidazo[4,5-b]pyridin-1-yl)acetic acid] | 1 to 10
O=C(O)Cn1c(=O)n(C2CCN(S(=O)(=O)c3cccnc3)CC2)c2ncccc21 [Compound 68, 2-(2-oxo-3-(1-(pyridin-3-ylsulfonyl)piperidin-4-yl)-2,3-dihydro-1H-imidazo[4,5-b]pyridin-1-yl)acetic acid] | 10 to 30
N#Cc1cccc(S(=O)(=O)N2CCC(n3c(=O)n(CC(=O)O)c4cccnc43)CC2)c1 [Compound 69, 2-(3-(1-(3-cyanophenylsuIfonyl)piperidin-4-yl)-2-oxo-2,3-dihydro-1H-imidazo[4,5-b]pyridin-1-yl)acetic acid] | 1 to 10
O=C(O)Cn1c(=O)n(C2CCN(S(=O)(=O)c3ccc(Cl)cc3F)CC2)c2ncc(F)cc21 [Compound 71, 2-(3-(1-(4-chloro-2-fluorophenyl-sulfonyl)piperidin-4-yl)-6-fluoro-2-oxo-2,3-dihydro-1H-imidazo[4,5-b]pyridin-1-yl)acetic acid] | 1 to 10
O=C(O)Cn1c(=O)n(C2CCN(S(=O)(=O)c3cccc4cccnc34)CC2)c2ncc(F)cc21 [Compound 72, 2-(6-fluoro-2-oxo-3-(1-(quinolin-8-ylsulfonyl)piperidin-4-yl)-2,3-dihydro-1H-imidazo[4,5-b]pyridin-1-yl)acetic acid] | 1 to 10
CC(C)Oc1ccc(S(=O)(=O)N2CCC(n3c(=O)n(CC(=O)O)c4cc(F)cnc43)CC2)cc1 [Compound 73, 2-(6-fluoro-3-(1-(4-isopropoxyphenyl-sulfonyl)piperidin-4-yl)-2-oxo-2,3-dihydro-1H-imidazo[4,5-b]pyridin-1-yl)acetic acid] | 10 to 30
CC(C)Oc1ccc(S(=O)(=O)N2CCC(n3c(=O)n(CC(=O)O)c4cccnc43)CC2)cc1 [Compound 75, 2-(3-(1-(4-isopropoxyphenylsulfonyl)piperidin-4-yl)-2-oxo-2,3-dihydro-1H-imidazo[4,5-b]pyridin-1-yl)acetic acid] | > 30
Cc1cc(S(=O)(=O)N2CCC(n3c(=O)n(CC(=O)O)c4cccnc43)CC2)c(C)s1 [Compound 76, 2-(3-(1-(2,5-dimethylthiophen-3-ylsulfonyl)piperidin-4-yl)-2-oxo-2,3-dihydro-1H-imidazo[4,5-b]pyridin-1-yl)acetic acid] | 1 to 10
O=C(O)Cn1c(=O)n(C2CCN(S(=O)(=O)c3ccc(Oc4ccccc4)cc3)CC2)c2ncccc21 [Compound 77, 2-(2-oxo-3-(1-(4-phenoxyphenyl-sulfonyl)piperidin-4-yl)-2,3-dihydro-1H-imidazo[4,5-b]pyridin-1-yl)acetic acid] | 1 to 10

Further lines, results first:

IC50 [µM] | SMILES
1 to 10 | O=C(O)Cn1c(=O)n(C2CCN(S(=O)(=O)c3ccc(F)cc3)CC2)c2ncccc21 [Compound 55, 2-(3-(1-(4-fluorophenylsulfonyl)piperidin-4-yl)-2-oxo-2,3-dihydro-1H-imidazo[4,5-b]pyridin-1-yl)acetic acid]
1 to 10 | O=C(O)Cn1c(=O)n(C2CCN(S(=O)(=O)c3ccc(Cl)cc3)CC2)c2ncccc21 [Compound 57, 2-(3-(1-(4-chlorophenylsulfonyl)piperidin-4-yl)-2-oxo-2,3-dihydro-1H-imidazo[4,5-b]pyridin-1-yl)acetic acid]
< 1 | O=C(O)Cn1c(=O)n(C2CCN(S(=O)(=O)c3ccccc3Cl)CC2)c2ncccc21 [Compound 58, 2-(3-(1-(2-chlorophenylsulfonyl)piperidin-4-yl)-2-oxo-2,3-dihydro-1H-imidazo[4,5-b]pyridin-1-yl)acetic acid]
1 to 10 | O=C(O)Cn1c(=O)n(C2CCN(S(=O)(=O)c3ccc4ccccc4c3)CC2)c2ncccc21 [Compound 59, 2-(3-(1-(naphthalen-2-ylsulfonyl)piperidin-4-yl)-2-oxo-2,3-dihydro-1H-imidazo[4,5-b]pyridin-1-yl)acetic acid]
< 1 | O=C(O)Cn1c(=O)n(C2CCN(S(=O)(=O)Cc3ccc(F)cc3)CC2)c2ncccc21 [Compound 64, 2-(3-(1-(4-fluorobenzylsulfonyl)piperidin-4-yl)-2-oxo-2,3-dihydro-1H-imidazo[4,5-b]pyridin-1-yl)acetic acid]
< 1 | O=C(O)Cn1c(=O)n(C2CCN(S(=O)(=O)c3ccccc3[N+](=O)[O-])CC2)c2ncccc21 [Compound 67, 2-(3-(1-(2-nitrophenylsulfonyl)piperidin-4-yl)-2-oxo-2,3-dihydro-1H-imidazo[4,5-b]pyridin-1-yl)acetic acid]
< 1 | N#Cc1ccccc1S(=O)(=O)N1CCC(n2c(=O)n(CC(=O)O)c3cccnc32)CC1 [Compound 70, 2-(3-(1-(2-cyanophenylsulfonyl)piperidin-4-yl)-2-oxo-2,3-dihydro-1H-imidazo[4,5-b]pyridin-1-yl)acetic acid]
< 1 | CS(=O)(=O)c1ccccc1S(=O)(=O)N1CCC(n2c(=O)n(CC(=O)O)c3cc(F)cnc32)CC1 [Compound 74, 2-(6-fluoro-3-(1-(2-(methylsulfonyl)phenylsulfonyl)piperidin-4-yl)-2-oxo-2,3-dihydro-1H-imidazo[4,5-b]pyridin-1-yl)acetic acid]
